The test system of one assay is nucleosomes from ESCs. In words: Time-lapse TIRF imaging of antibody binding and dissociation on nucleosomes from ESCs. Also on record: species or system Mouse. The note with it: images every 15 minutes, FIG. 7B-C. How it is done:
FIG. 7A-7F. Time-lapse images detect repeated antibody binding and dissociation events. (A) Mono-nucleosomes were extracted from HEK293 cells, labeled and distributed on the surface as described in FIG. 1A. […] Shown are images taken at 15, 30 and 45 minutes after addition of antibodies. (B-F) Nucleosomes from ESCs were distributed on the surface and incubated with antibodies targeting H3K27me3 (B, D, F) or H3K4me3 (C, E). Time lapse images were taken every 15 minutes. A total of 10,000 individual binding events were analyzed for each antibody. (B-C) Number of binding events detected at each time point. Equilibrium of binding and dissociation of antibodies is achieved at 45 minutes for H3K27me3, and 75 minutes for H3K4me3. Later images show mild reduction in signal due to photo bleaching. (D-E) For each nucleosome, the number of binding events by antibody was calculated in a total of 8 images taken during the time course of the experiment (30-135 minutes). Graph depicts a histogram of the number of images in which each nucleosome is bound by the antibody. Due to repeated binding and dissociation events, most of the nucleosomes are bound more than once. […]
(§1) All experiments were performed on a total internal reflection (TIRF) microscope with two lasers, 532 nm/75 mW and 640 nm/40 mW, for fluorescence excitation (Compass 215M, Cube-40C, Coherent). […]

Assay [1] has as its system control peptides and singly modified peptides. In words: Antibody specificity peptide array (dot-blot assay). The class given is binding. The note with it: FIG. 9. As to the method:
FIG. 9A-9B. Peptide array confirms high antibody specificity (A-B) Reactivity of H3K27me3 antibody (A) or H3K4me3 antibody (B) with control peptides and singly modified peptides.
To test for antibody specificity, Applicants used a peptide array with unlabeled antibodies (the same lots of antibodies that were labeled by Cell Signaling and used for the imaging) according to the following protocol: array is immersed in 4 ml blocking solution (TBST containing 5% non-fat dried milk) for 4 hours at room temperature. Next, array is washed 3 times with TBST, and primary antibody is added (diluted in TBST 1:25,000). Antibody is incubated over night at 4° C. on a rotor. Then the array is washed 3 times in TBST and the secondary antibody (Active Motif, 100612) is added for 1 hour at room temperature. Array is washed again 3 times in TBST and the signal is detected by FlourChemQ.

In assay [2] the test system is recombinant unmodified nucleosomes. In words: Single-molecule antibody binding to recombinant unmodified nucleosomes. The note with it: monitored over time; FIG. 8A. As to the method:
FIG. 8A-8B. Low background and high specificity of antibody binding. (A) Recombinant unmodified nucleosomes were prepared as previously described (91), and then ligated to biotinylated, fluorescent adaptors as in FIG. 1A. Binding of fluorescently-labeled H3K27me3 antibodies was monitored over time. […] For comparison, also shown are images of H3K27me3 antibody binding to nucleosomes prepared from HEK293 cells. (B) Western-blot analysis of labeled H3K27me3 peptide (TAMRA, green) bound by H3K27me3 antibodies (Alexa647, red). Fluorescent signal on membrane was visualized using a Typhoon trio+imager (Amersham Biosciences).
Applicants imaged millions of nucleosomes and decoded their modification state. Images are analyzed with Cell Profiler software. […] In contrast, when Applicants treated cells with histone deacetylase inhibitors (HDACi), the fraction of acetylated nucleosomes increased to 7% (FIG. 1C, 1D). Importantly, when Applicants repeated the analysis with recombinant unmodified nucleosomes, just 0.1% of nucleosomes scored (FIG. 1E, 8A). […]
as §1

For the substance “H3K27me3 antibody: Tri-Methyl-Histone H3 (Lys27) (C36B11) Rabbit mAb (Alexa Fluor 647 Conjugate), Cell Signaling #12158”, the “time at which equilibrium of binding and dissociation of antibodies is achieved” value in the assay on nucleosomes from ESCs was 45 min. In addition, the “reactivity with control peptides and singly modified peptides (target specificity)” value in assay [1] is “very high target specificity and low background”. In assay [2], the “binding events on recombinant unmodified nucleosomes” value is “Very few binding events were detected”.
